{"source": "patent US10576102B2", "about": "“KOC1-derived peptide and vaccine including same” (ONCOTHERAPY SCIENCE, INC., priority 2014, dated 2020)", "key": {"[1]": {"system": "COS7 cells transfected with both KOC1 and HLA-A*0101", "test": "Specific CTL activity against target cells expressing KOC1 and HLA-A*0101", "format": "cell-based, African green monkey", "settings": "listed as KOC1-A01-9-96", "procedure": "(§1) Specifically, peptide-pulsed C1R-A01 (1×10^4 cells/well) was prepared as the stimulator cell. The induced CTLs, i.e., CTL lines and CTL clones, were used as the responder cell. The IFN-gamma ELISPOT assay and IFN-gamma ELISA were performed according to the manufacturer's manual.\nA cDNA encoding the open-reading frame of a target gene or HLA-A*0101 was amplified by PCR. The PCR-amplified product was cloned into an expression vector. Expression vectors were transfected using Lipofectamine 2000 (Invitrogen) following the manufacturer's recommended protocol. Two days after transfection, the transfected cells were harvested using versene (Invitrogen), and used as the stimulator cell for CTL activity assay (5×10^4 cells/well).\nThe CTL clone established against KOC1-A01-9-96 (SEQ ID NO: 86) was investigated for its ability to recognize target cells expressing KOC1 and the HLA-A*0101 molecule. COS7 cells transfected with both full-length KOC1 and the HLA-A*0101 gene (a specific model of target cells expressing KOC1 and the HLA-A*0101 gene) were prepared as the target cell. COS7 cells transfected with either full-length KOC1 or HLA-A*0101 were prepared as the control."}, "[2]": {"system": "peptide-pulsed C1R-A01", "test": "In vitro CTL induction, IFN-gamma ELISPOT assay (HLA-A*0101)", "format": "cell-based, human", "settings": "CTLs induced with peptide-pulsed DCs from HLA-A*0101-positive volunteers; day 21; vs peptide-pulsed C1R-A01, compared with unpulsed control", "procedure": "C1R (C1R-A01) that stably expresses HLA-A*0101 was used as a stimulator cell. A cDNA encoding the open-reading frame of HLA-A*0101 was amplified by PCR and cloned into an expression vector. C1R cells were transfected with the expression vector, and then selected using G418 (Invitrogen) for two weeks. The G418-selected cells were seeded into wells containing G418-added culture medium in a 96-well plate, and further cultured for 30 days. The exogenous HLA-A*0101 expression in C1R cells was verified by flow cytometric analysis.\nMonocyte-derived dendritic cells (DCs) were used as the antigen-presenting cell to induce a cytotoxic T lymphocyte (CTL) response against peptides presented on human leukocyte antigens (HLAs). As described in the other sections, DCs were generated in vitro (Nakahara S et al., Cancer Res 2003, 63(14): 4112-8). Specifically, peripheral-blood mononuclear cells isolated from healthy volunteers (HLA-A*0101-positive) with the Ficoll-Paque plus solution (Pharmacia) were separated by attaching to plastic tissue culture dishes (Becton Dickinson) and concentrated as a monocyte fraction. The monocyte-concentrated population was cultured in the presence of 1000 IU/ml granulocyte macrophage colony-stimulating factor (R&D System) and 1000 IU/ml interleukin(IL)-4 (R&D System) in an AIM-V medium (Invitrogen) containing 2% heat-inactivated autologous serum (AS). After seven days of culturing, the cytokine-induced DCs were pulsed with 20 micro-g/ml each of the synthesized peptides in an AIM-V medium at 37 degrees C. for three hours in the presence of 3 micro-g/ml beta 2-microglobulin. Next, these peptide-pulsed DCs were inactivated by X-ray irradiation (20 Gy), and mixed in a 1:20 ratio with autologous CD8^+ T cells obtained by positive selection using the CD8 Positive Isolation Kit (Dynal). These culture products were seeded in a 48-well plate (Corning). Each well was made to contain 1.5×10^4 peptide-pulsed DCs, 3×10^5 CD8^+ T cells and 10 ng/ml IL-7 (R&D System) in 0.5 ml of the AIM-V/2% AS medium. Three days later, these culture products were added with a final concentration of 20 IU/ml IL-2 (CHIRON). On day 7 and day 14, T cells were further stimulated with peptide-pulsed autologous DCs. The DCs were prepared every time by the same method as above. On day 21, after the third peptide stimulation, CTL activities were examined against the peptide-pulsed C1R-A01 cells (Tanaka H et al., Br J Cancer 2001, 84(1): 94-9; Umano Y et al., Br J Cancer 2001, 84(8): 1052-7; Uchida N et al., Clin Cancer Res 2004, 10(24): 8577-86; Suda T et al., Cancer Sci 2006, 97(5): 411-9; Watanabe T et al., Cancer Sci 2005, 96(8): 498-506).\nas §1"}, "[3]": {"system": "peptide-pulsed C1R-A01", "test": "IFN-gamma ELISA of CTL lines and CTL clone (HLA-A*0101)", "format": "cell-based, human", "procedure": "CTLs were propagated in culture using methods similar to those disclosed by Riddell et al. (Walter E A et al., N Engl J Med 1995, 333(16): 1038-44; Riddell S R et al., Nat Med 1996, 2(2): 216-23). The CTLs were co-cultured in a total of 25 ml AIM-V medium containing 5% AS and 40 ng/ml anti-CD3 antibody with two types of Mitomycin C-treated human B lymphoblastoid cell lines at 5×10^6 cells. One day after beginning of the culturing, 120 IU/ml IL-2 was added to the culture. On days 5, 8 and 11, a fresh AIM-V/5% AS medium containing 30 IU/ml IL-2 was added to the culture (Tanaka H et al., Br J Cancer 2001, 84(1): 94-9; Umano Y et al., Br J Cancer 2001, 84(8): 1052-7; Uchida N et al., Clin Cancer Res 2004, 10(24): 8577-86; Suda T et al., Cancer Sci 2006, 97(5): 411-9; Watanabe T et al., Cancer Sci 2005, 96(8): 498-506).\nCTLs were seeded to make 1 or 10 cells/well in 96 round-bottomed microtiter plates (Nalge Nunc International). The CTLs were co-cultured with two types of Mitomycin C-treated human B lymphoblastoid cell lines at 1×10^4 cells in a total of 150 micro-1/well 5% AS-containing AIM-V medium with 30 ng/ml anti-CD3 antibody and 125 IU/ml IL-2. Ten days later, 50 micro-1 of IL-2 was added to the medium to reach a final IL-2 concentration of 125 IU/ml. On day 14, the CTL activity was tested, and the CTL clones were propagated using the same method as described above (Uchida N et al., Clin Cancer Res 2004, 10(24): 8577-86; Suda T et al., Cancer Sci 2006, 97(5): 411-9; Watanabe T et al., Cancer Sci 2005, 96(8): 498-506).\nas §1"}}, "note": "Entries after “also recorded” stand apart in the source; their conditions may differ.", "data": [{"sequence": "VLDSLLVQY (a peptide derived from KOC1) [SEQ ID NO: 86]", "values": [{"measurement": "specific CTL activity of CTL clone against target cells expressing KOC1 and HLA-A*0101", "setting": "[1]; COS7 transfected with both full-length KOC1 and HLA-A*0101", "result": "specific CTL activity; also recorded: potent CTL activities"}, {"measurement": "specific CTL activity of CTL clone against control cells", "setting": "[1]; COS7 transfected with either full-length KOC1 or HLA-A*0101", "result": "a significant specific CTL activity was not shown; also recorded: a significant specific CTL activity was not detected"}, {"measurement": "peptide-specific CTL activity (IFN-gamma production), ELISPOT", "setting": "[2]", "result": "potent IFN-gamma production"}, {"measurement": "IFN-gamma production of CTL clone, ELISA", "setting": "[3]; CTL clone by limiting dilution, peptide-pulsed C1R-A01, listed as KOC1-A01-9-96", "result": "Potent IFN-gamma production"}, {"measurement": "IFN-gamma production of CTL lines, ELISA", "setting": "[3]; CTL lines, target cells pulsed with the peptide vs not pulsed, C1R-A01", "result": "potent IFN-gamma production"}]}]}
